Data reported in ChEMBL document CHEMBL1201862, “PubChem BioAssay data set” (2004).
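48-hour exposure; five concentrations; linearly interpolated endpoints. GI50 is the concentration that inhibits growth by half.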 Activity calls are given as the source filed them. Cut-off read from the data, not from the text of the source: active = GI50 up to about 1.1 µM and inactive = higher.

What was measured:
Test in all cases: DTP human tumour cell line panel, 48 h
A549 = tested on: A549
COLO 205 = tested on: COLO 205
EKVX = tested on: EKVX
Hs-578T = tested on: Hs-578T
LOX IMVI = tested on: LOX IMVI
MDA-MB-231 = tested on: MDA-MB-231
MDA-MB-435 = tested on: MDA-MB-435
MDA-N = tested on: MDA-N
NCI-H460 = tested on: NCI-H460
NCI/ADR-RES = tested on: NCI/ADR-RES
OVCAR-5 = tested on: OVCAR-5
OVCAR-8 = tested on: OVCAR-8
PC-3 = tested on: PC-3
SK-MEL-2 = tested on: SK-MEL-2

Row | SMILES | GI50 (A549) | GI50 (COLO 205) | GI50 (EKVX) | GI50 (Hs-578T) | GI50 (LOX IMVI) | GI50 (MDA-MB-231) | GI50 (MDA-MB-435) | GI50 (MDA-N) | GI50 (NCI-H460) | GI50 (NCI/ADR-RES) | GI50 (OVCAR-5) | GI50 (OVCAR-8) | GI50 (PC-3) | GI50 (SK-MEL-2)
1 | O=P1(O)c2ccccc2CS(=O)(=O)Cc2ccccc21 | > 100 µM (inactive) | > 100 µM (inactive) | > 100 µM (inactive) | > 100 µM (inactive) | > 100 µM (inactive) | > 100 µM (inactive) | > 100 µM (inactive) | > 100 µM (inactive) | > 100 µM (inactive) | > 100 µM (inactive) | > 100 µM (inactive) | > 100 µM (inactive) | > 100 µM (inactive) | > 100 µM (inactive)
2 | COC(=O)Cc1c([C@H]2[C@H](CC(=O)OC)c3ccccc3N2C(=O)C(F)(F)F)[nH]c2ccccc12 | 31.3 µM (inactive) | 18.2 µM (inactive) | 26.8 µM (inactive) | 22.8 µM (inactive) | 26.4 µM (inactive) | 20.7 µM (inactive) | 21.9 µM (inactive) | 32.3 µM (inactive) | 22.4 µM (inactive) | 21.5 µM (inactive) | 18.9 µM (inactive) | 32.5 µM (inactive) | 11.4 µM (inactive) | 25 µM (inactive)
3 | CC(C)Oc1cccc(N2C(n3ccnc3)=Nc3ccncc3S2(=O)=O)c1 | 20.4 µM (inactive) | 10.2 µM (inactive) | 16.2 µM (inactive) | 19 µM (inactive) | 16.2 µM (inactive) | – | 11.9 µM (inactive) | 12.8 µM (inactive) | 18.8 µM (inactive) | 21 µM (inactive) | 13.8 µM (inactive) | 14.5 µM (inactive) | 10.8 µM (inactive) | 13.1 µM (inactive)
4 | COc1ccc(N(C)C(=O)N(C)c2ccc([N+](=O)[O-])cc2)cc1 | 58.1 µM (inactive) | – | 65.2 µM (inactive) | 6.4 µM (inactive) | 33.1 µM (inactive) | 45.3 µM (inactive) | 4.21 µM (inactive) | 9.25 µM (inactive) | 25.8 µM (inactive) | 23.6 µM (inactive) | 39.9 µM (inactive) | 71 µM (inactive) | – | 14.5 µM (inactive)
5 | Cc1nc2n(c1/C=C1/C(=O)Nc3cccc(Cl)c31)CCS2 | 56.1 µM (inactive) | > 100 µM (inactive) | 31.8 µM (inactive) | 22 µM (inactive) | 81.7 µM (inactive) | 18.7 µM (inactive) | 33.5 µM (inactive) | 57.9 µM (inactive) | > 100 µM (inactive) | 31.1 µM (inactive) | > 100 µM (inactive) | 25.7 µM (inactive) | 38 µM (inactive) | 17.1 µM (inactive)
6 | C=CC[N+]12CN3CN(CN(C3)C1)C2 | 31.3 µM (inactive) | 25.9 µM (inactive) | 20.4 µM (inactive) | > 100 µM (inactive) | 27 µM (inactive) | 32.2 µM (inactive) | 19.7 µM (inactive) | 17.3 µM (inactive) | 24.2 µM (inactive) | 26.1 µM (inactive) | 23.2 µM (inactive) | 24 µM (inactive) | 31.4 µM (inactive) | 42.1 µM (inactive)
7 | C=C1CC(C)(COc2ccc3c(C)c(C)c(=O)oc3c2C)OC1=O (centres undefined) | 7.67 µM (inactive) | 1.06 µM (active) | 5.52 µM (inactive) | 1.9 µM (inactive) | 1.2 µM (inactive) | 2.52 µM (inactive) | 2.7 µM (inactive) | 1.77 µM (inactive) | 5.33 µM (inactive) | 2.46 µM (inactive) | 6.27 µM (inactive) | 2.11 µM (inactive) | 2.27 µM (inactive) | 2.01 µM (inactive)
8 | O=C1/C(=C/c2ccc(Oc3ccccc3)cc2)N=C(c2ccccc2)N1c1ccc(S(=O)(=O)Nc2nccs2)cc1 | 25.8 µM (inactive) | 8.3 µM (inactive) | 23.2 µM (inactive) | 39.4 µM (inactive) | 21.5 µM (inactive) | 28.2 µM (inactive) | 2.62 µM (inactive) | 3.22 µM (inactive) | 25.5 µM (inactive) | 13.1 µM (inactive) | 40.4 µM (inactive) | – | 25.4 µM (inactive) | 2.63 µM (inactive)
9 | CC(C)(C)OC(=O)NC(Cc1ccc(OCc2ccccc2)cc1)C(=O)NC(COCc1ccccc1)C(=O)Oc1c(Cl)c(Cl)c(Cl)c(Cl)c1Cl (centres undefined) | 27.1 µM (inactive) | 18.7 µM (inactive) | 23.1 µM (inactive) | 17.7 µM (inactive) | 23.6 µM (inactive) | 13.5 µM (inactive) | 21.7 µM (inactive) | 26.4 µM (inactive) | 17.6 µM (inactive) | 21.2 µM (inactive) | 25.5 µM (inactive) | 21.5 µM (inactive) | 19.5 µM (inactive) | 19 µM (inactive)
10 | CCCc1cc(=O)oc2c3c(c4c(c12)OC(C)(C)CC4)O[C@@H](C)[C@H](C)[C@H]3O | 10.8 µM (inactive) | 12.6 µM (inactive) | 12.2 µM (inactive) | 15.8 µM (inactive) | 15.4 µM (inactive) | 2.16 µM (inactive) | 5.94 µM (inactive) | 2.69 µM (inactive) | 8.49 µM (inactive) | 9.4 µM (inactive) | 12.7 µM (inactive) | 13.3 µM (inactive) | 4.23 µM (inactive) | 14.6 µM (inactive)
11 | CCCOC1OC(CS(=O)(=O)O)C(O)C(O)C1O (centres undefined) | – | > 100 µM (inactive) | – | > 100 µM (inactive) | > 100 µM (inactive) | – | > 100 µM (inactive) | > 100 µM (inactive) | > 100 µM (inactive) | > 100 µM (inactive) | > 100 µM (inactive) | > 100 µM (inactive) | > 100 µM (inactive) | > 100 µM (inactive)
12 | S=C(Cc1ccc2c(c1)Sc1ccccc1O2)N1CCOCC1 | 35.7 µM (inactive) | 36.6 µM (inactive) | 30.3 µM (inactive) | 21.1 µM (inactive) | 45.4 µM (inactive) | 58.7 µM (inactive) | 29.4 µM (inactive) | 42.7 µM (inactive) | 23.5 µM (inactive) | 24.8 µM (inactive) | > 100 µM (inactive) | 30.5 µM (inactive) | 28.3 µM (inactive) | 66.7 µM (inactive)
13 | Oc1cc(O)c2c(c1)O[C@H](c1ccc(O)c(O)c1)[C@@H](O)C2 [CIANIDANOL] | > 100 µM (inactive) | > 100 µM (inactive) | > 100 µM (inactive) | > 100 µM (inactive) | > 100 µM (inactive) | > 100 µM (inactive) | > 100 µM (inactive) | > 100 µM (inactive) | > 100 µM (inactive) | > 100 µM (inactive) | > 100 µM (inactive) | > 100 µM (inactive) | > 100 µM (inactive) | > 100 µM (inactive)
14 | CC(C)=CCN1c2ccc(Cl)cc2NC(=O)CC1C (centres undefined) | 27.2 µM (inactive) | 21.6 µM (inactive) | 25.8 µM (inactive) | 24.3 µM (inactive) | 17.8 µM (inactive) | 19.3 µM (inactive) | 19.5 µM (inactive) | 21.7 µM (inactive) | 17.5 µM (inactive) | – | 59.4 µM (inactive) | 19.1 µM (inactive) | 23.8 µM (inactive) | 20.6 µM (inactive)
15 | C=Cc1cnc([N+](=O)[O-])n1C | 56 µM (inactive) | 46.5 µM (inactive) | > 100 µM (inactive) | 35.7 µM (inactive) | 87.5 µM (inactive) | > 100 µM (inactive) | 60.8 µM (inactive) | 40 µM (inactive) | 56.8 µM (inactive) | > 100 µM (inactive) | > 100 µM (inactive) | > 100 µM (inactive) | 40.8 µM (inactive) | –
16 | CC(=O)[C@@]1(c2ccccc2)CC2(CCN(C)CC2)O[C@H]1C | > 100 µM (inactive) | > 100 µM (inactive) | > 100 µM (inactive) | – | > 100 µM (inactive) | > 100 µM (inactive) | > 100 µM (inactive) | > 100 µM (inactive) | > 100 µM (inactive) | > 100 µM (inactive) | > 100 µM (inactive) | > 100 µM (inactive) | – | –
17 | COP(C)(=O)/C(Cc1ccccc1)=N\O (centres undefined) | > 100 µM (inactive) | > 100 µM (inactive) | – | > 100 µM (inactive) | > 100 µM (inactive) | > 100 µM (inactive) | > 100 µM (inactive) | > 100 µM (inactive) | > 100 µM (inactive) | > 100 µM (inactive) | > 100 µM (inactive) | > 100 µM (inactive) | > 100 µM (inactive) | > 100 µM (inactive)
18 | C(=C\Nc1ccc(Oc2ccccc2)cc1)/C=N/c1ccc(Oc2ccccc2)cc1 | 22.1 µM (inactive) | 20 µM (inactive) | 18.4 µM (inactive) | 19.9 µM (inactive) | 15 µM (inactive) | 17.1 µM (inactive) | 17.4 µM (inactive) | 16.2 µM (inactive) | 16.7 µM (inactive) | 16.9 µM (inactive) | 25 µM (inactive) | 20.2 µM (inactive) | 15.1 µM (inactive) | –
19 | Cc1nc2ccc(S(=O)(=O)Nc3nccs3)cc2c(=O)n1NS(=O)(=O)c1nccs1 | – | > 100 µM (inactive) | > 100 µM (inactive) | > 100 µM (inactive) | – | > 100 µM (inactive) | 40.3 µM (inactive) | > 100 µM (inactive) | 50.2 µM (inactive) | > 100 µM (inactive) | > 100 µM (inactive) | > 100 µM (inactive) | 86.9 µM (inactive) | > 100 µM (inactive)
20 | O=C(O)C1(Cc2ccc3c(c2)CCC3)Cc2cc3c(cc2C1)CCC3 | > 100 µM (inactive) | > 100 µM (inactive) | > 100 µM (inactive) | > 100 µM (inactive) | > 100 µM (inactive) | – | > 100 µM (inactive) | > 100 µM (inactive) | – | – | > 100 µM (inactive) | > 100 µM (inactive) | > 100 µM (inactive) | > 100 µM (inactive)
21 | CCOC(=O)c1csc(NC(=O)CCN2CCCCC2)n1 | > 100 µM (inactive) | > 100 µM (inactive) | > 100 µM (inactive) | – | > 100 µM (inactive) | > 100 µM (inactive) | > 100 µM (inactive) | > 100 µM (inactive) | > 100 µM (inactive) | > 100 µM (inactive) | > 100 µM (inactive) | > 100 µM (inactive) | > 100 µM (inactive) | > 100 µM (inactive)
